Where a SMILES comes first, the peptide text is derived from it. Bridges are numbered along the chain shown (N, C = ends). [ ]: non-standard residue; d: D form. The star is where a group is joined. X1 = O=C(O)CN1CCN(CC(=O)O)CCN(Cc2ccc(CC(=O)*)cc2)CC1; Mpa = O=C(O)CCS
Columns and labels:
in vivo = details: rat
Description: To investigate the plausibility of i.n. administration for OT-like therapies, given the similar structure and hydrophilic profile between AlF-NODA-dLVT and OT, in vivo tissue distribution of [^18F]AlF-NODA-dLVT was determined following i.n. or i.v. administration. […]. Here, it is anticipated that both routes show independent kinetic and metabolic profiles and the extended apparent availability of OT following i.n. administration supports a longer timeframe for this study.[27],[28] Distribution was determined through gamma counting of radioactivity in isolated tissue. A large portion underwent excretion via kidneys (i.v. 4.6 ± 0.4%ID per g; i.n. 1.31 ± 0.7%ID per g) and urine (i.v. 2.5 ± 1.2%ID per g; i.n. 7.7 ± 2.2%ID per g), as expected from the hydrophilic character of the tracer, similar to previous results found with radiolabelled OT given i.v. (Fig. 4A).[29]
Supplementary Figure 5: Pharmacokinetic data acquired from three individual rats showing plasma clearance of AlF-NODA-dLVT over time. Rats received a dose of AlF-NODA-dLVT by tail vein injection (0.08 mg/kg), and blood plasma samples were taken at the specified time point for quantitative analysis by mass spectrometry. […]
Supplementary Figure 6: Transaxial nanoPET scan showing distribution over time of [18F]AlF-NODA-dLVT. Tracer was administered either by i.v. bolus (top) or intranasally (bottom) in rat. […]

[1] = biological target: T1, human vasopressin receptor V1b (Homo sapiens, UniProt P47901); assay: Scintillation proximity assay, displacement of [3H]AVP from human V1b receptor; type: binding
T1 construct: expressed in transfected cells
T1 sequence (P47901 1-424): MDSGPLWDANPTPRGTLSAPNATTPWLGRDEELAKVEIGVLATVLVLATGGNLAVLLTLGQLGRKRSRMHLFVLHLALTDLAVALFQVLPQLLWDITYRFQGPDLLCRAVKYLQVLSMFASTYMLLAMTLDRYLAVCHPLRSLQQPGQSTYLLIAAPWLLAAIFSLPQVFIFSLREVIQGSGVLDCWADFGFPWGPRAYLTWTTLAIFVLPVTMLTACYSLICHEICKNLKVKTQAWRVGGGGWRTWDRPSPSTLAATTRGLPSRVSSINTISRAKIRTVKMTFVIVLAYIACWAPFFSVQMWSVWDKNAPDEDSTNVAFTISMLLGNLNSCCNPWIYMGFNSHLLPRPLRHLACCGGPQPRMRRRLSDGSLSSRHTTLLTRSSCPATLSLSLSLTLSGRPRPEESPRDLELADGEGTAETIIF
Description: OT analogues were screened in scintillation proximity assays that displace [^3H]OT or [^3H]AVP from the corresponding receptors. All peptides screened, including in a reduced state, preferentially bound human OTR with nanomolar affinity (Table 1). In line with previous studies, conjugation of a large group to position 8 afforded analogues with increased selectivity and improved affinity towards OTR[15] (approximately 60-fold for AlF-NODA-dLVT, and 7-fold for dLVT; Table 1 and ESI, ^† Fig. S1). […]. […]
tracer, a probe for nose-to-brain oxytocin uptake in vivo
Rhiannon Beard1; Nisha Singh2,3; Christophe Grundschober4; Antony D. Gee2 and Edward W. […]
a.1Department of Chemistry, Imperial College London, Exhibition Road, London, SW7 2AZ, UK; 2Division of Imaging Sciences, King’s College London, 4th Floor, Lambeth Wing, St Thomas’ Hospital, SE1, 7EH, London, UK; 3Centre for Neuroimaging Sciences, IoPPN, KCL, De Crespigny Park, London, SE5 8AF, UK; and 4 Roche Pharma Research and Early Development, Discovery Neuroscience, Roche Innovation Center Basel, F. Hoffmann-La Roche Ltd, Grenzacherstrasse 124, 4070 Basel, Switzerland […]
All RCYs reported are decay corrected to the time of 18F delivery. The protocols for performing receptor radioligand binding and potency studies on transfected cells to determine affinity constants have been reported elsewhere. 1 […]

human OTR = biological target: T2, human OTR (Homo sapiens, UniProt P30559); assay: Scintillation proximity assay, displacement of [3H]OT from human OTR; type: binding
T2 construct: expressed in transfected cells
T2 sequence (P30559 1-389): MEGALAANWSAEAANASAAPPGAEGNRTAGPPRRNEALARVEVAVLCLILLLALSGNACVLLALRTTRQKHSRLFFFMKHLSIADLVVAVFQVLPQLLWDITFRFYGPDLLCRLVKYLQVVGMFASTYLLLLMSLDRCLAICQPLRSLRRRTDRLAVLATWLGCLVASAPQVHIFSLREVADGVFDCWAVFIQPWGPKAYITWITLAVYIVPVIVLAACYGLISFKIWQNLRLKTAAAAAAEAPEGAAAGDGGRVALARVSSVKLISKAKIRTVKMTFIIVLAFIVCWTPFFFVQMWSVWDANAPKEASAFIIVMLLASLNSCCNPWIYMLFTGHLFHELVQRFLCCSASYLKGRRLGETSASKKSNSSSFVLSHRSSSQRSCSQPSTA
Description: (§1) OT analogues were screened in scintillation proximity assays that displace [^3H]OT or [^3H]AVP from the corresponding receptors. […]
(§2) All RCYs reported are decay corrected to the time of 18F delivery. The protocols for performing
(§3) receptor radioligand binding and potency studies on transfected cells to determine affinity

human V1a receptors = biological target: T3, human V1a receptors (Homo sapiens, UniProt P37288); assay: Scintillation proximity assay, displacement of [3H]AVP from human V1a receptor; type: binding
T3 construct: expressed in transfected cells
Description: as §1, §2, §3

[2] = biological target: T4, human vasopressin receptor V2 (Homo sapiens, UniProt P30518); assay: Scintillation proximity assay, displacement of [3H]AVP from human V2 receptor; type: binding
T4 construct: expressed in transfected cells
Description: as §1, §2, §3

T3 sequence (P37288 whole entry): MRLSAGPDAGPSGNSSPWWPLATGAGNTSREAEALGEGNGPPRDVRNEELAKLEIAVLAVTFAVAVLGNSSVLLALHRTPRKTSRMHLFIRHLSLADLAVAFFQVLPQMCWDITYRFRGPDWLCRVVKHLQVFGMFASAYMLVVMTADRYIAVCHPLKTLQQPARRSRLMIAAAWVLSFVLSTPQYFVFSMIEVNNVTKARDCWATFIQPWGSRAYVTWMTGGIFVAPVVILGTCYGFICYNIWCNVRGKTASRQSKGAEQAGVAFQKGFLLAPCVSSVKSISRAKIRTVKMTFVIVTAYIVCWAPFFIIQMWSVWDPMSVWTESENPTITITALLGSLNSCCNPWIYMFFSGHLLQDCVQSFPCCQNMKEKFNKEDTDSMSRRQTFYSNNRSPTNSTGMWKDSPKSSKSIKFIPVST
T4 sequence (P30518 whole entry): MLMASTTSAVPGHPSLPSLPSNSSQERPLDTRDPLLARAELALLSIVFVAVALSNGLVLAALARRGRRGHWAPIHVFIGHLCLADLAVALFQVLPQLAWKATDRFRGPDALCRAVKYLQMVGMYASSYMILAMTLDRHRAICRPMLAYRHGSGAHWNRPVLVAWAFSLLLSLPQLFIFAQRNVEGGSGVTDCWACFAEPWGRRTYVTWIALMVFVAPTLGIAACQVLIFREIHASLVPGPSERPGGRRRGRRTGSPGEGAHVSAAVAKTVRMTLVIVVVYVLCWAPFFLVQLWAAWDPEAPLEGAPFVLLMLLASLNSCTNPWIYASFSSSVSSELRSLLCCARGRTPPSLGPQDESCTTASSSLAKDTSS

half-life (in vivo; Wistar, iv, 0.08 mg/kg): 14 min | increase in half-life compared to OT (in vivo): approximately 5 fold | Ki [1]: > 6000 nM | selectivity towards OTR (human OTR; OTR over V1a, from Ki values of Table 1): approximately 60 fold | Ki (human OTR; human OTR): 2.6 ± 1.7 nM | Ki (human V1a receptors): 157 ± 26 nM | Ki [2]: > 6000 nM
Structure (SMILES): CC[C@H](C)[C@@H]1NC(=O)[C@H](Cc2ccc(O)cc2)NC(=O)CCSSC[C@@H](C(=O)N2CCC[C@H]2C(=O)N[C@@H](CCCCNC(=O)Cc2ccc(CN3CCN(CC(=O)O)CCN(CC(=O)O)CC3)cc2)C(=O)NCC(N)=O)NC(=O)[C@H](CC(N)=O)NC(=O)[C@H](CCC(N)=O)NC1=O [AlF-NODA-dLVTc] ([Mpa]YIQNCPK(X1)G-NH2; disulfide 1-6)
